Laboratory results published in ChEMBL document CHEMBL5674860, “Optimized Dual-Glo Assay to identify co-culture-induced drug vulnerabilities in 3D CRC models” (2024).

Columns and labels:
Format in all cases: functional, Homo sapiens
Parameters in all cases: dose or concentration left out as unconfirmed
Colon cancer organoid [1] = experiment: Optimized Dual-Glo assay to identify co-culture induced drug vulnerabilities using donated chemical probes and chemogenomics kinase set in O20 CRC organoid and F20 CAF mono and co-culture. […] Cell viability is reported both mono and co-culture models.
Colon cancer organoid [2] = experiment: Optimized Dual-Glo assay to identify co-culture induced drug vulnerabilities using donated chemical probes and chemogenomics kinase set in O14 CRC organoid and F14 CAF mono and co-culture. […] Cell viability is reported both mono and co-culture models.
Colon cancer organoid [3] = experiment: Optimized Dual-Glo assay to identify co-culture induced drug vulnerabilities using donated chemical probes and chemogenomics kinase set in O06 CRC organoid and F06 CAF mono and co-culture. […] Cell viability is reported both mono and co-culture models.
[4] = Culture type Co-Culture, Transduced with Lucferase2-P2A-EGFP lentivirus
[5] = Culture type Co-Culture, Transduced with Renilla-dsRed lentivirus
[6] = Culture type Mono-Culture, Transduced with Lucferase2-P2A-EGFP lentivirus
[7] = Culture type Mono-Culture, Transduced with Renilla-dsRed lentivirus

SMILES | Cell Viability (Colon cancer organoid [1]; [4]) | Cell Viability (Colon cancer organoid [1]; [5]) | Cell Viability (Colon cancer organoid [1]; [6]) | Cell Viability (Colon cancer organoid [1]; [7]) | Cell Viability (Colon cancer organoid [2]; [4]) | Cell Viability (Colon cancer organoid [2]; [5]) | Cell Viability (Colon cancer organoid [2]; [6]) | Cell Viability (Colon cancer organoid [2]; [7]) | Cell Viability (Colon cancer organoid [3]; [4]) | Cell Viability (Colon cancer organoid [3]; [5]) | Cell Viability (Colon cancer organoid [3]; [6]) | Cell Viability (Colon cancer organoid [3]; [7])
COc1cc(C(=O)N2CC[C@@H](O)[C@@H](N)C2)cc2nc(-c3cc4ccccc4n3CC3CC3)n(C)c12.Cl | 98.8385% | 114.018% | 83.2381% | 78.6997% | 132.512% | 122.105% | 79.0484% | 89.8768% | 124.227% | 121.721% | 98.6493% | 122.476%
CNC(=O)c1ccc(Nc2ncc(C(F)(F)F)c(NCc3nccnc3N(C)S(C)(=O)=O)n2)cc1 [DEFACTINIB] | 57.0475% | 79.7534% | 66.5234% | 63.7293% | 83.442% | 104.135% | 42.8527% | 104.257% | 127.858% | 116.047% | 102.967% | 60.766%
CCC(=N\O)/C(C)=C/c1ccc(F)c(C)c1 [A-226] | 93.31% | 115.263% | 126.956% | 103.634% | 99.1206% | 103.384% | 109.979% | 105.569% | 127.798% | 151.161% | 120.98% | 100.434%
O=C(NNS(=O)(=O)c1ccccc1)c1cc(-c2ccnnc2)ccc1F [WM-2474] | 104.784% | 126.08% | 94.4259% | 109.751% | 77.1469% | 98.8333% | 101.234% | 91.9977% | 92.1572% | 93.3483% | 72.4696% | 112.209%
COc1cc(N2CCC(O)CC2)ccc1Nc1cc(Nc2ccccc2S(=O)(=O)C(C)C)c2cc[nH]c2n1 | 108.471% | 84.332% | 70.9146% | 86.2422% | 73.6565% | 103.778% | 68.2856% | 78.3072% | 85.241% | 81.2438% | 122.712% | 109.159%
CC(C)(C)c1cc(NC(=O)Nc2ccc(-c3cn4c(n3)sc3cc(OCCN5CCOCC5)ccc34)cc2)no1 [QUIZARTINIB] | 58.7644% | 111.29% | 48.0043% | 98.7475% | 40.6861% | 210.95% | 46.4384% | 89.2922% | 26.1053% | 134.448% | 20.7828% | 88.706%
Cn1c(C2(NC(=O)c3ccc(NCC4CCCCC4)nc3)CCC2)nc2ccc(/C=C/C(=O)O)cc21 [BI 7656] | 93.1126% | 134.723% | 113.339% | 113.787% | 115.178% | 112.206% | 113.679% | 103.836% | 130.07% | 105.71% | 133.812% | 120.577%
N#CC1(c2ccccn2)CCN(Cc2cc(C(=O)N3CCCC3)c(=O)n3ccccc23)CC1 [MSD-M1PAM-NC] | 102.191% | 109.338% | 89.1265% | 100.403% | 77.5991% | 103.607% | 89.6138% | 86.9553% | 85.4848% | 72.6928% | 94.7679% | 111.31%
CNC(=O)c1cc(C(=O)N[C@H]2[C@@H]3COC[C@@H]32)cc2c1O[C@H](CF)[C@H]2c1ccccc1 [GSK973] | 97.8368% | 135.509% | 77.6772% | 131.324% | 93.0111% | 167.902% | 105.165% | 155.71% | 110.942% | 170.924% | 57.9314% | 146.399%
